{
  "source": "patent EP0133795B1",
  "about": "(THE McLEAN HOSPITAL CORPORATION, priority 1983, dated 1985)",
  "key": {"[1]": {"assay": "Comparative brain/liver uptake of 14C-labeled compounds (Brain Penetration Index)"}, "[2]": {"system": "general motor activity of mice", "assay": "General locomotor activity of mice (Stoelting electronic activity monitor)", "assay_type": "in vivo, Balb/c mice"}, "[3]": {"system": "general motor activity", "assay": "General motor activity of rats (dose-response, Fig. 1)", "assay_type": "in vivo", "conditions": "n = 6 per dose", "text": "• Figures 1A and 1 B show the effects of cholesteryl-GABA on general motor activity."}, "[4]": {"assay": "Enzymatic hydrolysis of cholesteryl [14C]GABA ester by rat brain homogenate", "assay_type": "in vitro ADME", "conditions": "3 mg/ml, 37°C, S1 fractions of rat brain homogenates (0.8 mg/ml of protein)", "text": "Cholesterol hydrolases and esterases are present in mammalian brain tissue."}, "[5]": {"system": "CAI pyramidal cells", "assay_type": "cell-based, Sprague-Dawley rats", "description": "Transverse slices of hippocampus (350-375 µm thick) were prepared from Sprague-Dawley rats (200-300 g) and transferred onto a nylon net fixed over a 1.5 ml superfusion chamber. The slices were maintained at 32-33°C in a humidified atmosphere of 95%/5% 02/C02. The standard medium consisted of (in mM): NaCl, 125; KCI, 3.5; CaC12,2; MgS04, 1.5; NaH2PO4, 1; NaHC03, 24; and glucose, 10. Low chloride medium was prepared by substituting sodium isethionate for sodium chloride.\nExtracellular potentials were recorded with NaCI-fitted micropipettes, and stimulus pulses were applied through bipolar platinum wire electrodes. The various drugs were dissolved in fresh medium (without glucose and phosphate) and applied to the surface of the tissue by pressure ejection from a micropipette, Sakai, Swartz and Woody, (1979).\nThe inhibitory effectiveness of various compounds was investigated by measuring their ability to suppress the extracellular population spike recorded from the hippocampal CAI pyramidal layer and elicited by stimulation of stratum radiatum axons. The amplitude of this monosynaptic population spike is essentially proportional to the number of pyramidal cells discharging in response to a stimulus volley, Andersen, Bliss and Skrede, (1971).\nThe various compounds were applied as droplets to the pyramidal layer approximately 75 µm from the recording electrode. The volume of a single drug application was about 300 picoliters. […] The volume ejected from each pipette was calibrated prior to use by measuring the diameter of the ejected droplet and adjusting the duration of the pressure pulse (usually 100-500 msec) until a standard diameter was reached. A constant droplet volume was used throughout the experiments. Where dose-response information was required, several pipettes with different drug concentrations were used."}, "[6]": {"conditions": "1 hr after administration; TLC"}, "[7]": {"conditions": "50 μmol/kg s.c., 5 min, mice, mean ± S.E.M. (n = 3)"}},
  "data": [
    {"substance": "(3-Cholesteryl)-gamma-Aminobutyrate [Compound 6]", "values": [
      {"measurement": "(BRAIN)", "setting": "[1]; [7]", "result": "0.17 ± 0.03", "unit": "nmol/g"},
      {"measurement": "(LIVER)", "setting": "[1]; [7]", "result": "0.69 ± .08 nmol/g"},
      {"measurement": "BPI", "setting": "[1]; [7]", "result": "25 ± 7", "unit": "%"},
      {"measurement": "(BRAIN)", "setting": "[1]; 50 μmol/kg s.c., 15 min, mice", "result": 0.67, "unit": "nmol/g"},
      {"measurement": "(LIVER)", "setting": "[1]; 50 μmol/kg s.c., 15 min, mice", "result": 1.19, "unit": "nmol/g"},
      {"measurement": "BPI", "setting": "[1]; 50 μmol/kg s.c., 15 min, mice", "result": 56, "unit": "%"},
      {"measurement": "(BRAIN)", "setting": "[1]; 50 μmol/kg s.c., 60 min, mice", "result": 0.79, "unit": "nmol/g"},
      {"measurement": "(LIVER)", "setting": "[1]; 50 μmol/kg s.c., 60 min, mice", "result": 0.92, "unit": "nmol/g"},
      {"measurement": "BPI", "setting": "[1]; 50 μmol/kg s.c., 60 min, mice", "result": 86, "unit": "%"},
      {"measurement": "(BRAIN)", "setting": "[1]; 50 μmol/kg s.c., 180 min, mice", "result": 0.60, "unit": "nmol/g"},
      {"measurement": "(LIVER)", "setting": "[1]; 50 μmol/kg s.c., 180 min, mice", "result": 1.89, "unit": "nmol/g"},
      {"measurement": "BPI", "setting": "[1]; 50 μmol/kg s.c., 180 min, mice", "result": 32, "unit": "%"},
      {"measurement": "increase of 5-min BPI over GABA", "setting": "[1]; 5 min after s.c. injection, relative to GABA", "result": 25, "unit": "fold"},
      {"measurement": "BPI", "setting": "[1]; Table IX summary, 5-min Brain Penetration Index", "result": 25},
      {"measurement": "accumulation of radioactivity in brain persisted post-injection", "setting": "[1]; s.c., mice", "result": "45 to 60", "unit": "min"},
      {"measurement": "In Vivo Inhibition of General Motor Activity", "setting": "[2]; graded 0-5", "result": 5},
      {"measurement": "activity in the general motor activity test (in words)", "setting": "[2]; i.p., mice", "result": "active"},
      {"measurement": "i.p. injected dose at which motor activity was reduced by 50%", "setting": "[2]; mice, Fig. 1, n = 6 per dose, 60 min", "result": 17, "unit": "µmol/kg"},
      {"measurement": "i.p. injected dose at which motor activity was reduced by 50%", "setting": "[3]", "result": 8, "unit": "µmol/kg"},
      {"measurement": "Amount of Unreacted Substrate (6)", "setting": "[4]; 10 min, 40 μl aliquots, TLC", "result": "53.0 ± 7.0", "unit": "nmol"},
      {"measurement": "Amount of Unreacted Substrate (6)", "setting": "[4]; 30 min", "result": "43.5 ± 6.3", "unit": "nmol"},
      {"measurement": "Amount of Unreacted Substrate (6)", "setting": "[4]; 60 min", "result": "34.5 ± 4.9", "unit": "nmol"},
      {"measurement": "duration of the effect relative to a similar dose of GABA", "setting": "[5]", "result": "roughly an order of magnitude longer"},
      {"measurement": "effect after incubation of slices in PMSF (0.5 mM) for about 45 min", "setting": "[5]", "result": "significantly reduced"},
      {"measurement": "effect with picrotoxin (10 µM) in the medium or low chloride medium", "setting": "[5]", "result": "essentially eliminate the C-G effect"},
      {"measurement": "recovery of the population spike amplitude to 90% of the pre-droplet control value", "setting": "[5]; after an approximately half-maximal dose", "result": "about 14 min"},
      {"measurement": "inhibition of the evoked population spike", "setting": "[5]; droplets applied to the CAI pyramidal layer", "result": "dose-dependent inhibition"},
      {"measurement": "labeled compound present as intact molecules in brain homogenates", "setting": "[6]", "result": "about 70%"}
    ]}
  ]
}
